According to patent US5081264A, “Bioxanthracene derivatives” (Kyowa Hakko Kabushiki Kaisha, priority 1989, dated 1992):
Like-named read-outs stand apart in the source and are kept apart here. Blank lines part the entries; values can stand above or below the compound they belong to.

What was measured:
[1] = test system: nerve cells (septal area of the brain of a fetal rat); test: Protection of cultured nerve cells (septal area) against L-glutamic acid; type: cell-based; conditions: L-glutamic acid 100 μM
Procedure: Protection of cultured nerve cells
(§1) The septal area was taken out from the brain of a fetal rat. The cells were dispersed using trypsin and deoxyribonuclease and were cultured for one day on a Pit medium (Dulbecco modified Eagle medium or Ham F12 medium, commercial products of Nissui Seiyaku K. K., Japan) containing 5% horse serum and 5% fetal calf serum. After adding cytosine arabinoide (10μM) to the medium, the culturing was continued for 10 days.
(§2) L-glutamic acid (100 μM) and ES-242-1 were added to the cultured broth to measure the survival ratio of the nerve cells. For control purposes, a similar procedure was carried out with the exception that glutamic acid (100μM) and/or ES-242-1 were replaced by dimethylsulfoxide (DMSO) (0.5%). The cells which survived were counted by the fluorescence-dying method with reference to the Costa et al. method [Proc. Natl. Acad. Sci., U.S.A., 85, 7351-7355 (1988)].
(§3) The results shown in the following Table 3 were obtained in a manner similar to that described above except the cerebellum was used instead of the septal area. In the following tables, the term "GA" denotes L-glutamic acid (unit 100μM) and the term "SR" denote the survival ratio of the cells (%).

[2] = test system: nerve cells (cerebellum of a rat); test: Protection of cultured nerve cells (cerebellum) against L-glutamic acid; type: cell-based; conditions: L-glutamic acid 100 μM; for viability at 5 µg/mL / viability at 1 µg/mL / viability at 10 µg/mL: Rattus norvegicus, cerebellum, read-out: survival ratio of the cells (SR); for viability at 5 µg/mL: test compound 5 μg/ml; for inhibition of the death of nerve cells induced by L-glutamic acid: cerebellum (Tables 4 and 5); for viability at 1 µg/mL: test compound 1 μg/ml; for viability at 10 µg/mL: test compound 10 μg/ml
Procedure: as §1, §2, §3
The results shown in the following Tables 4 and 5 were obtained by a procedure similar to that described in Experiment 1 above with the exception that the cerebellum of a rat and ES-242-2 or ES-242-5 were respectively used instead of the septal area and ES-242-1.

[3] = test system: CAI area neurons of the hippocampus; test: Protection of nerve cells from ischaemic injury; type: in vivo, Mongolian gerbils
Excerpt: Ischaemic injury of the nervous system was induced in the CAI area of the hippocampus of Mongolian gerbils by closing and reperfusing two cartoid arteries with reference to the Kirino et al method [Cerebral Nerve, Vol. 38, No. 12, 1157-1163 (1986)] as follows.
On each occasion, the test compound was suspended in a physiological solution of sodium chloride. The animal (body weight 60-70 g) was anesthetized with ether. The left and right common cartoid arteries were exposed through midcervical vertical skin incision and the anesthetic was discontinued. The cartoid arteries on both sides were occluded for 5 minutes using aneurism clips. Immediately after this, a given amount (100 mg/kg) of Compound ES-242-1 was given orally to the animal. One week after this, the animal was fixed by transcardic perfusion. Immediately after this, the brain was removed from the animal to prepare a sample of the histologic section containing the CIA area of the hippocampus. The number of normal cells of the CAI area neurons per 1 mm linear length was counted.
The above-mentioned treatment is hereinafter referred to as the ischaemic treatment.
For control purposes, a group of the animals were given a physiological solution of sodium chloride only, without ischaemic treatment. […]

[4] = biological target: N-methyl-D-aspartic acid receptor; test: Binding activity to N-methyl-D-aspartic acid receptor ([3H]TCP binding in rat brain membranes); conditions: rat brain membranes (crushed cerebrum)
Procedure: The binding activity of Compounds ES-242 to N-methyl-D-aspartic acid receptor was measured as follows.
With reference to the modified method of Vignon et al [Brain Research, 280, 194-197 (1983)], the binding activity of ES-242 to N-[1-(2-thienyl) cyclohexyl]-3,4-[^3 H]piperidine ([^3 H]TCP) in rat brain membranes was measured by the use of a crushed cerebrum of a rat and expressed by IC50 viz. a concentration required for 50% inhibition of the binding ability to the sample.

Solubility = type: physicochemical
nervous system = conditions: literature report; cited from earlier work
[5] = test system: N-methyl-D-aspartic acid receptors; conditions: literature report; cited from earlier work
[6] = literature report; cited from earlier work
[7] = literature report; cited from earlier work; remark: listed apart in the source
[8] = Table 4, control 95, GA alone 56
[9] = Table 5, control 88, GA alone 40

IC50 (50% inhibition of [3H]TCP binding) [4]: 14.6 µg/mL
SMILES: COc1cc(OC)c2c(O)c3c(c(-c4c5c(c(O)c6c(OC)cc(OC)cc46)COC(C)C5O)c2c1)C(O)C(C)OC3 (centres unmarked) [ES-242-4]

IC50 (50% inhibition of [3H]TCP binding) [4]: 0.6 µg/mL
SMILES: COc1cc(OC)c2c(O)c3c(c(-c4c5c(c(O)c6c(OC)cc(OC)cc46)COC(C)C5O)c2c1)CC(C)OC3 (centres unmarked) [ES-242-5]
inhibition of the death of nerve cells induced by L-glutamic acid [2]: inhibit the death of the nerve cells
viability at 1 µg/mL [2, 9]: 68%
viability at 5 µg/mL [2, 9]: 73%
viability at 10 µg/mL [2, 9]: 79%

Second part, the compound before the results:

SMILES: COc1cc(OC)c2c(O)c3c(c(-c4c5c(c(O)c6c(OC)cc(OC)cc46)COC(C)C5OC(C)=O)c2c1)CC(C)OC3 (centres unmarked) [ES-242-1]
inhibition of the death of nerve cells induced by L-glutamic acid ([1]; septal area and cerebellum (Tables 2 and 3)): inhibited the death of the nerve cells
viability at 0.1 µg/mL ([1]; Rattus norvegicus, septal area, test compound 0.1 μg/ml, control 87, GA alone 5, read-out: survival ratio of the cells (SR)): 23%
viability at 0.5 µg/mL ([1]; Rattus norvegicus, septal area, test compound 0.5 μg/ml, control 87, GA alone 5, read-out: survival ratio of the cells (SR)): 73%
viability at 5 µg/mL ([2]; Table 3, control 90, GA alone 44): 75%
number of normal cells in average ± standard deviation (N) ([3]; 100 mg/kg oral immediately after 5 min occlusion, one week, n=5, normal control 100 ± 4.7, ischaemic control 0 ± 0): 24.4 ± 20.6 cells/mm
protecting activity to ischaemic injury of the nervous system ([3]; 100 mg/kg oral, gerbils): exhibited a significant protecting activity
IC50 (50% inhibition of [3H]TCP binding) [4]: 0.1 µg/mL
Solubility (Solubility; methanol, acetone, ethyl acetate and chloroform): Readily soluble
Solubility (Solubility; water and n-hexane): Insoluble

SMILES: COc1cc(OC)c2c(O)c3c(c(-c4c5c(c(O)c6c(OC)cc(OC)cc46)COC(C)C5OC(C)=O)c2c1)C(OC(C)=O)C(C)OC3 (centres unmarked) [ES-242-2]
viability at 5 µg/mL ([1]; Rattus norvegicus, septal area, test compound 5 μg/ml, control 87, GA alone 5, read-out: survival ratio of the cells (SR)): 74%
viability at 50 µg/mL ([1]; Rattus norvegicus, septal area, test compound 50 μg/ml, control 87, GA alone 5, read-out: survival ratio of the cells (SR)): 74%
inhibition of the death of nerve cells induced by L-glutamic acid [2]: inhibit the death of the nerve cells
viability at 1 µg/mL [2, 8]: 44%
viability at 10 µg/mL [2, 8]: 88%
IC50 (50% inhibition of [3H]TCP binding) [4]: 1.9 µg/mL

SMILES: COc1cc(OC)c2c(O)c3c(c(-c4c5c(c(O)c6c(OC)cc(OC)cc46)COC(C)C5OC(C)=O)c2c1)C(O)C(C)OC3 (centres unmarked) [ES-242-3]
IC50 (50% inhibition of [3H]TCP binding) [4]: 1.8 µg/mL

SMILES: COc1cc2c(-c3c(OC)c(C)c(O)c4c(O)c5c(cc34)C[C@](C)(O)CC5=O)c3c(c(O)c2c(O)c1C)C(=O)C[C@@](C)(O)C3 [Singueanol II]
capability of protecting the nervous system (nervous system): neither capable of protecting the nervous system
antagonism against N-methyl-D-aspartic acid receptors [5]: nor antagnostic against N-methyl-D-aspartic acid receptors
anti-bacterial activity [6]: exhibit anti-aspartic and anti-bacterial activity
anti-aspartic activity [7]: exhibit anti-aspartic
